According to patent US10213428B2, “(4-((3R,4R)-3-methoxytetrahydro-pyran-4-ylamino)piperidin-1-yl)(5-methyl-6-(((2R,6S)-6-(p-tolyl)tetrahydro-2H-pyran-2-yl)methylamino)pyrimidin-4-yl)methanone citrate” (Centrexion Therapeutics Corporation, priority 2015, dated 2019):
Read-outs that look alike come from different tables or passages of the source.

Columns and labels:
Assay type in all cases: physicochemical
[1] = Dynamic vapour sorption (sorption isotherms, water uptake); conditions: for hygroscopic behavior: uptake of water: 25° C.
From the text: Sorption isotherms were generated using an IGAsorp water sorption monitor from Hiden Isochema. […] For BR salt form only: Sorption isotherms were registered on a DVS-1 water sorption monitor from Surface Measurement Systems.

[2] = X-ray powder diffraction: crystallinity and polymorphism; conditions: for indications for polymorphism: several crystallization experiments
From the text: X-ray powder diagrams were generated using a STOE-STADI P-diffractometer in transmission mode fitted with a MYTHEN-detector and a Cu-anode as X-ray source with monochromatic CuKα1 radiation (λ=1.54056 Å, 40 kV, 40 mA).

[3] = ThermoGravimetry (loss on drying); conditions: TG
From the text: Thermal gravimetry data were collected with a TG instrument from the Q-series of TA Instruments. This method measures weight changes in a material as a function of temperature under a controlled atmosphere.

For CO[C@H]1COCC[C@H]1NC1CCN(C(=O)c2ncnc(NC[C@H]3CCC[C@@H](c4ccc(C)cc4)O3)c2C)CC1.CS(=O)(=O)O [methanesulfonate salt of compound I, (4-((3R,4R)-3-methoxytetrahydro-pyran-4-ylamino)piperidin-1-yl)(5-methyl-6-(((2R,6S)-6-(p-tolyl)tetrahydro-2H-pyran-2-yl)methylamino)pyrimidin-4-yl)methanone methanesulfonate], the “hygroscopic behavior: deliquescence” value ([1]; up to 80% r.h.) was “irreversibly deliquescent”, the “hygroscopic behavior: uptake of water” value ([1]; up to 80% r.h. (humidity range 10-80%), listed as Methanesulfonate Salt, methanesulfonate) was 30% and the “hygroscopic behavior: uptake of water” value ([1]; up to 80% r.h. (humidity range 10-80%), methanesulfonate) was 30%. For the same molecule, the “hygroscopic behavior: uptake of water” value ([1]; up to 90% r.h.) was 45%, the crystallinity ([2]; listed as methanesulfonate salt of compound of formula (I), methanesulfonate) was “medium crystallinity” and the crystallinity ([2]; methanesulfonate) was “Medium”. The indications for polymorphism ([2]; listed as Methanesulfonate Salt, methanesulfonate) was “No” and the indications for polymorphism ([2]; listed as methanesulfonate, methanesulfonate) was “only one polymorphic form”.

With CO[C@H]1COCC[C@H]1NC1CCN(C(=O)c2ncnc(NC[C@H]3CCC[C@@H](c4ccc(C)cc4)O3)c2C)CC1.Cl [hydrochloride salt of compound I, (4-((3R,4R)-3-methoxytetrahydro-pyran-4-ylamino)piperidin-1-yl)(5-methyl-6-(((2R,6S)-6-(p-tolyl)tetrahydro-2H-pyran-2-yl)methylamino)pyrimidin-4-yl)methanone hydrochloride] the loss on drying [3] was 2.8%, the “hygroscopic behavior: uptake of water” value ([1]; up to 80% r.h. (humidity range 10-80%), hydrochloride) was 15% and the “hygroscopic behavior: uptake of water” value ([1]; up to 80% r.h. (humidity range 10-80%), listed as Hydrochloride Salt, hydrochloride) was 15% uptake. The “hygroscopic behavior: deliquescence” value ([1]; up to 80% r.h., listed as Hydrochloride Salt, hydrochloride) was “deliquescent”, the “hygroscopic behavior: deliquescence” value ([1]; up to 80% r.h., listed as hydrochloride, hydrochloride) was “irreversibly deliquescent” and the “hygroscopic behavior: deliquescence” value ([1]; up to 90% r.h.) was “deliquescent”. The “hygroscopic behavior: uptake of water” value ([1]; up to 90% r.h.) was 40% uptake, the crystallinity ([2]; hydrochloride) was “medium” and the crystallinity ([2]; listed as hydrochloride salt of compound of formula (I), hydrochloride) was “medium crystallinity”. The indications for polymorphism ([2]; listed as Hydrochloride Salt, hydrochloride) was “yes” and the indications for polymorphism ([2]; listed as hydrochloride, hydrochloride) was “Different polymorphic modifications”.

In the case of CCS(=O)(=O)O.CO[C@H]1COCC[C@H]1NC1CCN(C(=O)c2ncnc(NC[C@H]3CCC[C@@H](c4ccc(C)cc4)O3)c2C)CC1 [esilate salt of compound I, (4-((3R,4R)-3-methoxytetrahydro-pyran-4-ylamino)piperidin-1-yl)(5-methyl-6-(((2R,6S)-6-(p-tolyl)tetrahydro-2H-pyran-2-yl)methylamino)pyrimidin-4-yl)methanone esilate], the loss on drying [3] is reported as 2.4%, the “hygroscopic behavior: uptake of water” value ([1]; up to 80% r.h. (humidity range 10-80%)) is reported as 20% and the “hygroscopic behavior: uptake of water” value ([1]; up to 80% r.h. (humidity range 10-80%), listed as Esilate Salt) is reported as 20% uptake. The “hygroscopic behavior: deliquescence” value ([1]; up to 80% r.h., listed as Esilate Salt) was “deliquescent”, the “hygroscopic behavior: deliquescence” value ([1]; up to 80% r.h., listed as esilate) was “irreversibly deliquescent” and the “hygroscopic behavior: deliquescence” value ([1]; up to 90% r.h.) was “deliquescent”. For the same molecule, the “hygroscopic behavior: uptake of water” value ([1]; up to 90% r.h.) was 45% uptake, the crystallinity [2] was “high” and the crystallinity ([2]; listed as esilate salt of compound of formula (I)) was “high crystallinity”. The indications for polymorphism ([2]; listed as Esilate Salt) was “no” and the indications for polymorphism ([2]; listed as esilate) was “only one polymorphic form”.

In the case of Br.CO[C@H]1COCC[C@H]1NC1CCN(C(=O)c2ncnc(NC[C@H]3CCC[C@@H](c4ccc(C)cc4)O3)c2C)CC1 [hydrobromide salt of compound I, (4-((3R,4R)-3-methoxytetrahydro-pyran-4-ylamino)piperidin-1-yl)(5-methyl-6-(((2R,6S)-6-(p-tolyl)tetrahydro-2H-pyran-2-yl)methylamino)pyrimidin-4-yl)methanone hydrobromide], the loss on drying [3] is reported as 2.9%, the “hygroscopic behavior: uptake of water” value ([1]; up to 80% r.h. (humidity range 10-80%), hydrobromide) is reported as 4.5% and the “hygroscopic behavior: uptake of water” value ([1]; up to 80% r.h. (humidity range 10-80%), listed as Hydrobromide Salt, hydrobromide) is reported as 4.5%. The “hygroscopic behavior: deliquescence” value ([1]; up to 80% r.h., listed as Hydrobromide Salt, hydrobromide) was “deli-”, the “hygroscopic behavior: deliquescence” value ([1]; up to 80% r.h., listed as hydrobromide, hydrobromide) was “irreversibly deliquescent” and the “hygroscopic behavior: deliquescence” value ([1]; up to 90% r.h.) was “deli-”. The “hygroscopic behavior: uptake of water” value ([1]; up to 90% r.h.) was 20%, the crystallinity ([2]; hydrobromide) was “medium” and the crystallinity ([2]; listed as hydrobromide salt of compound of formula (I), hydrobromide) was “medium crystallinity”. For the same molecule, the indications for polymorphism ([2]; listed as Hydrobromide Salt, hydrobromide) was “Yes” and the indications for polymorphism ([2]; listed as hydrobromide, hydrobromide) was “Different polymorphic modifications”.
